Experimental data as given in ChEMBL document CHEMBL1132854, “Structure-based design of ketone-containing, tripeptidyl human rhinovirus 3C protease inhibitors” (Bioorg Med Chem Lett, 2000).
Square brackets hold non-standard residues; d marks the D form. Peptide text beside a SMILES is read from it. * marks the point of attachment. Cbz = O=C(OCc1ccccc1)*; Dap = NC[C@H](N)C(=O)O

Experiments:
[1] = system: Human rhinovirus sp.; experiment: Compound was evaluated for in vitro effective concentration against HRV serotype-14 (HRV-14); format: functional, organism-based
[2] = system: Human rhinovirus sp.; experiment: Compound was evaluated for the inhibition of human rhinovirus 3C protease (3CP); format: functional, organism-based
[3] = system: Human rhinovirus sp.; experiment: Compound was evaluated for in vitro cytotoxic concentration against HRV serotype-14 (HRV-14); format: functional
[4] = system: Human rhinovirus sp.; experiment: Compound was evaluated for the inhibition of human rhinovirus 3C protease (3CP); No inhibition; format: functional, organism-based
[5] = system: Human rhinovirus sp.; experiment: Compound was evaluated for in vitro cytotoxic concentration against HRV serotype-14 (HRV-10); format: functional
[6] = system: Human rhinovirus sp.; experiment: Compound was evaluated for in vitro cytotoxic concentration against HRV serotype-14 (HRV-1A); format: functional
[7] = system: Human rhinovirus sp.; experiment: Compound was evaluated for in vitro effective concentration against HRV serotype-14 (HRV-10); format: functional, organism-based
[8] = system: Human rhinovirus sp.; experiment: Compound was evaluated for in vitro effective concentration against HRV serotype-14 (HRV-1A); format: functional, organism-based

EC50 [1]	EC50 [7]	EC50 [8]	Compound	Ki [2]	CC50 [3]	Ki [4]	CC50 [5]	CC50 [6]
2.4 µM			CC(=O)NC[C@@H](C=O)NC(=O)[C@H](Cc1ccccc1)NC(=O)[C@H](CC(C)C)NC(=O)OCc1ccccc1 (Cbz-Leu-Phe-[Dap](Ac)-aldehyde)	0.006 µM				
32 µM			CC(C)C[C@H](NC(=O)OCc1ccccc1)C(=O)N[C@@H](Cc1ccccc1)C(=O)N[C@@H](CCC(N)=O)C(O)c1nc2ccccc2s1 (stereo partly specified)		80 µM	Not Active		
3.2 µM			CC(C)CC(NC(=O)OCc1ccccc1)C(=O)N[C@@H](Cc1ccccc1)C(=O)NC(CC1CCNC1=O)C(=O)c1nc2ccccc2s1 (stereo partly specified)	0.065 µM	> 320 µM			
17 µM			CC(C)C[C@H](NC(=O)OCc1ccccc1)C(=O)N[C@@H](Cc1ccccc1)C(=O)N[C@@H](CCC(N)=O)C(=O)c1nc2ccccc2s1	3.5 µM	> 100 µM			
7.9 µM			CC(C)C[C@H](NC(=O)OCc1ccccc1)C(=O)N[C@@H](Cc1ccccc1)C(=O)N[C@@H](C[C@@H]1CCNC1=O)C(O)c1nc2ccccc2s1 (stereo partly specified)	34 µM	63 µM			
> 10 µM			CC(C)C[C@H](NC(=O)OCc1ccccc1)C(=O)N[C@@H](Cc1ccccc1)C(=O)N[C@@H](C[C@@H]1CCNC1=O)C(=O)c1cc2ccccc2s1	4.7 µM	> 10 µM			
7.9 µM			CC(C)C[C@H](NC(=O)OCc1ccccc1)C(=O)N[C@@H](Cc1ccccc1)C(=O)N[C@@H](C[C@@H]1CCNC1=O)C(=O)c1nccs1	0.7 µM	240 µM			
> 25 µM			CC(=O)NC[C@H](NC(=O)[C@H](Cc1ccccc1)NC(=O)[C@H](CC(C)C)NC(=O)OCc1ccccc1)C(=O)c1nc2ccccc2s1	1.7 µM	25 µM			
0.34 µM	0.25 µM	0.34 µM	Cc1cc(C(=O)N[C@H](C(=O)N[C@@H](Cc2ccc(F)cc2)C(=O)N[C@@H](C[C@@H]2CCNC2=O)C(=O)c2nc3ccccc3s2)C(C)C)no1	0.0045 µM	250 µM		250 µM	250 µM
> 10 µM			CC(C)C[C@H](NC(=O)OCc1ccccc1)C(=O)N[C@@H](Cc1ccccc1)C(=O)N[C@@H](C[C@@H]1CCNC1=O)C(=O)c1ccccc1	3.2 µM	> 10 µM			
4 µM			CC(C)C[C@H](NC(=O)OCc1ccccc1)C(=O)N[C@@H](Cc1ccccc1)C(=O)N[C@@H](C[C@@H]1CCNC1=O)C(=O)c1ccccn1	0.17 µM	200 µM			
